One molecule from patent US5656603A (Loyola University of Chicago, priority 1995, dated 1997) can be followed below.

Some results are limits rather than exact numbers.

What all share (type): biochemical
For experiment [1], the target named is bestatin-sensitive/amastatin-insensitive membrane dipeptidase. Kind of experiment: Specificity of apstatin: bestatin-sensitive/amastatin-insensitive membrane dipeptidase. The conditions noted are these: bovine lung microsomes; Arg-Trp, pH 6.8, FLUO. On the procedure: (§1) Specificity of Apstatin--Apstatin was assayed for its ability to inhibit several other peptidases. […] Unless otherwise indicated, the source of each enzyme activity was a detergent extract of bovine lung prepared as described in (12-13). Activities were determined by a modification of the fluorescent assay described above (indicated by "FLUO") or by HPLC separation and quantitation of reaction products using the method described in (12) (method "HPLC-1") or the method described below (method "HPLC-2"). […]

The target of experiment [2] is T1, dipeptidyl-peptidase IV (EC 3.4.14.5) (Bos taurus, UniProt P81425).
T1 construct: Unless otherwise indicated, the source of each enzyme activity was a detergent extract of bovine lung; from tissue; host or cells: detergent extract of bovine lung
T1 sequence (P81425 whole entry): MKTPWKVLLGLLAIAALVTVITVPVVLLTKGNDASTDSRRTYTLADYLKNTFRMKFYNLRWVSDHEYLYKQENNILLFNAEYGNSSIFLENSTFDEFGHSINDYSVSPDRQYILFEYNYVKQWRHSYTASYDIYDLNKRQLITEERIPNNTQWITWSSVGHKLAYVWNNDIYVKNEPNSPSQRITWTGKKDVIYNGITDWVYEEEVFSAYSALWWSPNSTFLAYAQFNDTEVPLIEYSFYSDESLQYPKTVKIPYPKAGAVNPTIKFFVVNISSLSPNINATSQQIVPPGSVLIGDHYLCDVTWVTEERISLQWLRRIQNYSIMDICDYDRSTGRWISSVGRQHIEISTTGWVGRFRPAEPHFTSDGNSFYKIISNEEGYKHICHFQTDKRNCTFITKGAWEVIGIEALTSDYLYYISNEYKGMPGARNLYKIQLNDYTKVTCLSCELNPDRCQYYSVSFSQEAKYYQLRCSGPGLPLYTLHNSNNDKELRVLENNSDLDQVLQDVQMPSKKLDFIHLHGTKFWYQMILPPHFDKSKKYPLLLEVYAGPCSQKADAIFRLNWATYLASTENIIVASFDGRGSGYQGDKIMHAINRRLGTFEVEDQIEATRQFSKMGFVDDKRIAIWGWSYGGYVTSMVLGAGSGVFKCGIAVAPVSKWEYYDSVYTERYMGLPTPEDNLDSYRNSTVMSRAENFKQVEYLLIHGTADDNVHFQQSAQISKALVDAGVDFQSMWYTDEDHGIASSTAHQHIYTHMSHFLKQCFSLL
Kind of experiment: Specificity of apstatin: dipeptidyl-peptidase IV. The conditions noted are these: detergent extract of bovine lung; Gly-Pro-β-NA, pH 6.8, FLUO. On the procedure:
as §1

In experiment [3] the target is T2, purified bovine lung membrane-bound aminopeptidase P (Bos taurus, UniProt E1B735).
T2 construct: from tissue; host or cells: bovine lung
T2 sequence (E1B735 22-673): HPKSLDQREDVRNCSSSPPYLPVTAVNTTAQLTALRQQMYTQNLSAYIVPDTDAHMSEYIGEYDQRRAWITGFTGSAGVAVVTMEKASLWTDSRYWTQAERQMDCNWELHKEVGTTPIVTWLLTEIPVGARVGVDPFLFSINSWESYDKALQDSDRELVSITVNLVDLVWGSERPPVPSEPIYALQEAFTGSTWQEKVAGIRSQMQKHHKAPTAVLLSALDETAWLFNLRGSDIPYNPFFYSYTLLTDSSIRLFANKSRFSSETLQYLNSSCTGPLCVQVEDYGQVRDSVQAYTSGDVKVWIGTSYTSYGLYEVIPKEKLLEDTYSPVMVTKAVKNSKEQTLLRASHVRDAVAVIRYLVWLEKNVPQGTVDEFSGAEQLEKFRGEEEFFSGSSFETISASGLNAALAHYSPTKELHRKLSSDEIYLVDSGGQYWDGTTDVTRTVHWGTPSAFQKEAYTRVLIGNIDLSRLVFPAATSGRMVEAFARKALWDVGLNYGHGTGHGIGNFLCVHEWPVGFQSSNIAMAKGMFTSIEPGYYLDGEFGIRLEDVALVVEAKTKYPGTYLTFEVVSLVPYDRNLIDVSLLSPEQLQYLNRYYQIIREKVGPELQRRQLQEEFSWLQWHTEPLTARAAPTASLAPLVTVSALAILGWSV
Kind of experiment: Aminopeptidase P inhibition, release of arginine from Arg-Pro-Pro (fluorescent assay). On the procedure: The IC50 of the compound of the present invention in relation to aminopeptidase P was also determined. […] The specificity of the compound of the present invention for other aminopeptidases was similarly determined as described in the Experimental Procedures herein. […] The following enzymes had IC50 values>800 μM: aminopeptidase A, angiotensin converting enzyme, dipeptidyl-peptidase I-like activity, bestatin-sensitive/amastatin-insensitive membrane dipeptidase (29), microsomal dipeptidase, endopeptidase 24.11, endopeptidase 24.15, and prolyl oligopeptidase.
Enzymes--Membrane-bound aminopeptidase P was purified to homogeneity from bovine lung (14) and from rat lung. Partially purified membrane-bound aminopeptidase P from human lung was obtained by treatment of lung microsomes with phosphatidylinositol-specific phospholipase C (B. thuringiensis) (ICN, Costa Mesa, Calif.) followed by centrifugation as described previously (14). Membrane dipeptidase was purified from rat lung microsomes (manuscript in preparation). Recombinant E. coli aminopeptidase P (22) and purified lamb kidney prolyl oligopeptidase (23) were generally supplied by Dr. Tadashi Yoshimoto (Nagasaki University). Purified porcine kidney prolidase and purified porcine kidney aminopeptidase M was obtained from Sigma (St. Louis, Mo.).
Enzyme Kinetics--Aminopeptidase P activity was determined by measuring the release of arginine from Arg-Pro-Pro by a fluorescent assay described previously (14). […] Each mixture was run in duplicate. Aliquots were removed from each incubation mixture at various times and assayed for the amount of arginine present to determine the reaction velocity. In general, reaction velocities were calculated from data representing less than 20% cleavage of substrate. Ki and Ki ' (=αKi) were determined from plots of 1/v versus concentration of inhibitor "i" (26) and S/v versus concentration of inhibitor "i" (27), respectively. These parameters were also determined from the slope replot and 1/v-intercept replot, respectively, of the 1/v versus 1/S plot (28). See e.g., FIG. 1B. The values from the two treatments of the data were averaged for each experiment. Experiments for each enzyme preparation were performed twice and the results averaged.

Regarding `C[C@H](NC(=O)[C@@H]1CCCN1C(=O)[C@@H]1CCCN1C(=O)[C@@H](O)[C@H](N)Cc1ccccc1)C(N)=O` [apstatin, N-[(2S, 3R)-3-amino-2-hydroxy-4-phenylbutanoyl]-L-prolyl-L-prolyl-Lalaninamide], the IC50 (commonly the midpoint of a concentration-inhibition curve) was > 800 µM in experiment [1]; 1100 µM in experiment [2]; 9.4 µM in experiment [3] (bovine lung aminopeptidase P, cleavage of 0.5 μM Arg-Pro-Pro in 0.1M Hepes, pH 8.0 at 37° C.). Moreover, the type of inhibition entry in experiment [3] (bovine lung aminopeptidase P, slope and 1/v-axis intercept replots) was “linear mixed-type”. In addition, in experiment [3] (bovine lung, purified membrane-bound form), the “α (αKi = equilibrium constant for enzyme-inhibitor binding at infinite substrate concentration)” value was determined as 4.2. Moreover, the affinity in experiment [3] (bovine lung, purified membrane-bound form, substrate Arg-Pro-Pro, 0.1 M Hepes pH 8.0, 39° C.) corresponds to a Ki of 7.8 µM.
